These results are taken from ChEMBL document CHEMBL1130098, “4-Heterocyclylpiperidines as selective high-affinity ligands at the human dopamine D4 receptor” (J Med Chem, 1997).

For assay [1], the target named is T1, D(4) dopamine receptor (Homo sapiens, UniProt P21917).
T1 sequence (P21917 whole entry): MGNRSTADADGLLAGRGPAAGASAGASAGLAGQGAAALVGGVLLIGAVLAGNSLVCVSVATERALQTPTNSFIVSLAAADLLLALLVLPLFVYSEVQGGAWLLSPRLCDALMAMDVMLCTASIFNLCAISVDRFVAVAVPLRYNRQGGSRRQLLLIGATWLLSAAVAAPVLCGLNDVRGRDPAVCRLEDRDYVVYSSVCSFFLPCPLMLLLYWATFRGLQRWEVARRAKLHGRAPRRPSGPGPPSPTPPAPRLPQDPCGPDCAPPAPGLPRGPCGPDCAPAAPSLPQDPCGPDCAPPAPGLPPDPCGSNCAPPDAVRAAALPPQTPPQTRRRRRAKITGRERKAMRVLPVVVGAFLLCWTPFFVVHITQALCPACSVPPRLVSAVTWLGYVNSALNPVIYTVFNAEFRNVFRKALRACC
Description: Ability to displace [3H]spiperone from human dopamine receptor D4 (hD4) receptor stably expressed in HEK293 cells.

The target of assay [2] is D(3) dopamine receptor (Homo sapiens, UniProt P35462).
Description: Ability to displace [3H]spiperone from human dopamine receptor D3 (hD3) receptor stably expressed in HEK293 cells.

Structures are written as SMILES. pKi: −log10 of the molar value.

Chain of D(3) dopamine receptor (P35462 whole entry): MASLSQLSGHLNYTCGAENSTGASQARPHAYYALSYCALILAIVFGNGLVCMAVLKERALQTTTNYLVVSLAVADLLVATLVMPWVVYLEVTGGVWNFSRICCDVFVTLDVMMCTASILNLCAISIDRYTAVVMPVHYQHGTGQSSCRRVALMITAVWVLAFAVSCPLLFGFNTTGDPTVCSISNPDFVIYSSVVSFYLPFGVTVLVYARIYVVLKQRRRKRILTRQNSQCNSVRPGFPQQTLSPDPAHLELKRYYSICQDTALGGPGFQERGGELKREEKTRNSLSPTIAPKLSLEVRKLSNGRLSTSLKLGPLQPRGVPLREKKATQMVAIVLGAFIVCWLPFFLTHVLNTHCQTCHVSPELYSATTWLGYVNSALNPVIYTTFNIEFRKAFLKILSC

As a reminder, the pKi is the negative decadic logarithm of the Ki, by convention in mol/L. Low readings indicate a high Ki, high ones a low Ki. Take `c1ccc(Cc2cc(C3CCN(Cc4ccccc4)CC3)[nH]n2)cc1`: the results for the pKi in assay [1] and in assay [2] were 6.80 and 5.68, respectively.

For the compound `c1ccc(CN2CCC(c3cc(-c4ccccc4)[nH]n3)CC2)cc1`, the pKi in assay [1] is 7.96; in assay [2] it was 5.85.

Turning to `CC1(c2cc(-c3ccc(Cl)cc3)[nH]n2)CCN(Cc2ccccc2)CC1`, the pKi is 7.33 in assay [1] and 5.89 in assay [2].

`Clc1ccc(-c2cc(C3CCN(CCCc4ccccc4)CC3)[nH]n2)cc1`: the pKi in assay [1] was 6.96; in assay [2], 6.06.

As for `Clc1ccc(-c2cc(C3CCN(Cc4ccccc4)CC3)[nH]n2)cc1`, the pKi in assay [1] was 8.04; in assay [2], 6.80.

As to `Cc1c(-c2ccc(Cl)cc2)nc(N)nc1C1CCN(CCc2ccccc2)CC1`, the pKi in assay [1] is 8.33; in assay [2] it was 5.96.

Take `Nc1nc(-c2ccc(Cl)cc2)cc(C2CCN(Cc3ccccc3)CC2)n1`: the pKi in assay [1] was 9.00; in assay [2], 6.85.

In the case of `Cc1c(-c2ccccc2)n[nH]c1C1=CCN(CCc2ccccc2)CC1`, the pKi is 8.51 in assay [1] and 6.08 in assay [2].

Turning to `CC1(C(=O)/C=C(\O)c2ccc(Cl)cc2)CCN(Cc2ccccc2)CC1`, the figures for the pKi in assay [1] and in assay [2] were 6.46 and 6.29, respectively.

With `CN1CCC(c2cc(-c3ccc(Cl)cc3)[nH]n2)CC1`, the values for the pKi in assay [1] and in assay [2] were 5.92 and under 5.72, respectively.

With `Clc1ccc(-c2cc(C3CCN(Cc4ccccc4)C3)[nH]n2)cc1` (configuration not stated), the figures for the pKi in assay [1] and in assay [2] were 6.96 and 6.04, respectively.

In the case of `Clc1ccc(-c2cc(C3CCN(Cc4ccccc4Cl)CC3)[nH]n2)cc1`, the pKi in assay [1] was 7.70; in assay [2], 5.89.

As to `Cc1cc(C2CCN(Cc3ccccc3)CC2)[nH]n1`, the results for the pKi in assay [1] and in assay [2] were 6.33 and 5.47, respectively.

Turning to `Clc1ccc(-c2cc(C3CCN(CC4CCCCC4)CC3)[nH]n2)cc1`, the pKi was 7.89 in assay [1] and 6.14 in assay [2].

Consider `c1ccc(CCN2CCC(c3cc(C4CCCCC4)n[nH]3)CC2)cc1`, for which the pKi in assay [1] was 8.00; in assay [2], 5.92.

`c1ccc(CCN2CCN(c3cc(-c4ccccc4)[nH]n3)CC2)cc1`: the figures for the pKi in assay [1] and in assay [2] were 7.64 and 5.92, respectively.

On to `Clc1ccc(-c2cc(C3CCN(Cc4cccc(Cl)c4)CC3)[nH]n2)cc1`, for which the values for the pKi in assay [1] and in assay [2] were 7.22 and 5.37, respectively.

With `c1ccc(CCN2CCC(c3cc(-c4ccccn4)[nH]n3)CC2)cc1`, the pKi in assay [1] was 7.66; in assay [2], 5.44.

Regarding `Clc1ccc(-c2cc(C3CCNCC3)[nH]n2)cc1`, the pKi in assay [1] was under 5.48; in assay [2], under 5.36.

Consider `Cc1c(C2CCN(Cc3ccccc3)CC2)n[nH]c1-c1ccc(Cl)cc1`, for which the pKi is 8.80 in assay [1] and 6.37 in assay [2].

As for `c1ccc(CCN2CCC3(CCc4c(-c5ccccc5)n[nH]c43)CC2)cc1`, the pKi in assay [1] is 6.03; in assay [2], 6.22.

On to `Clc1ccc(CN2CCC(c3cc(-c4ccc(Cl)cc4)no3)CC2)cc1`, for which the negative-log Ki (pKi) in assay [2] is 7.10.

`O=C(/C=C(\O)c1ccc(Cl)cc1)C1CCN(Cc2ccccc2)CC1`: the pKi in assay [1] is 7.92; in assay [2], 6.29.

Take `Clc1ccc(-c2cc(C3CCCCN3Cc3ccccc3)[nH]n2)cc1` (configuration not stated): the negative-log Ki (pKi) in assay [1] was 5.32; in assay [2], 5.74.

For the compound `c1ccc(CCN2CCC(c3cc(-c4cccnc4)n[nH]3)CC2)cc1`, the pKi in assay [1] was 7.64; in assay [2] it was under 5.38.

In the case of `c1ccc(CCN2CCC(c3cc(-c4cccs4)[nH]n3)CC2)cc1`, the results for the pKi in assay [1] and in assay [2] were 7.72 and 5.96, respectively.

`CCc1c(C2CCN(Cc3ccccc3)CC2)n[nH]c1-c1ccc(Cl)cc1`: the pKi in assay [1] was 8.82; in assay [2], 7.34.

For the compound `c1ccc(CCN2CCC(c3cc(-c4ccncc4)n[nH]3)CC2)cc1`, the pKi in assay [1] was 7.28; in assay [2] it was under 5.40.

Regarding `Clc1ccc(-c2cc(C3CCCN(Cc4ccccc4)C3)[nH]n2)cc1` (configuration not stated), the pKi in assay [1] was 6.39; in assay [2] it was 6.62.
